Measurements published in US20060039931A1, “Stable cream preparations of phenyl-pyridone compounds for topical application” (MEPHA AG, priority 2002, published 2006).

Test: Experiments on use of pyridone compounds in emulsions
Format: physicochemical
Description: When an emulsion “breaks”, the oily and aqueous phases separate, leading to unwanted coalescence, i.e. a kind of confluence or coagulation of the constituents. This often results in a change in pH and may even cause the active ingredient to crystallize out. This disadvantageous property of pirfenidone is not discussed in said patents and patent applications and no teaching is offered to remedy the problem. Creams are merely cited as a possible topical form of application.

Cc1ccc(=O)n(-c2ccccc2)c1 [pirfenidone, 5-methyl-1-phenyl-2-(1H)-pyridone]
Behaviour in emulsions: behave as emulsion breakers
